Assay results taken from patent US8835124B2, “Method for treating cancer with agents that bind phosphorylated CDC27” (The Nemours Foundation, priority 2011, dated 2014).

Assays:
Cdc27 [1] = target: T1, Cdc27 (Homo sapiens, UniProt P30260); test: Pull-down from DAOY cell lysates with curcumin-bound Sepharose beads; format: binding; conditions: two independent bead preparations, vs control beads
T1 construct: endogenous in cells; host or cells: DAOY medulloblastoma cells
Experimental: After washing, unoccupied binding sites were blocked with 1 M ethanolamine by overnight incubation. Low (0.1 M acetate buffer, pH 4) and high (0.1 M Tris-HCl, pH 8, 0.5 M NaCl) pH buffers were used each three times to wash and equilibrate the beads. Control beads were prepared in parallel with curcumin-coupled beads but curcumin was omitted. DAOY cell lysates were prepared in a lysis buffer of 100 mM HEPES, pH 7.6, 300 mM NaCl, 0.1% Triton X-100, 2 mM EDTA, 2 mM EGTA supplemented with phosphatase and protease inhibitors. 500 μg of protein was mixed with 20 μl of curcumin-coupled Sepharose beads and incubated for 3 hours at 4° C. After washing bound proteins were eluted with 1×SDS-PAGE sample buffer and processed for immunoblotting.
DAOY cell lysates were incubated with curcumin-bound Sepharose beads and then subjected to SDS-PAGE and immunoblotting with Cdc27. A BubR1 immunoblot was included as control for non-specific binding. […] The cell lysates were separated by SDS-PAGE and immunoblotted for Cdc27. […] Data represent mean±SEM of three independent experiments.

Cdc27 [2] = target: T1, Cdc27; test: Cdc27 immunoblot, molecular weight shift (crosslinking) in treated DAOY cells; format: cell-based
Experimental: Cell lysates were prepared in a buffer containing 20 mM Iris (pH 7.5), 150 mM NaCl, 1 mM EDTA, 1 mM EGTA, 0.1% Triton X-100, 2.5 mM sodium pyrophosphate, 1 mM β-glycerol phosphate, 1 mM sodium vanadate, 1 mM phenylmethylsulfonyl fluoride and 5 μg/ml of antipapain, leupeptin and pepstatin (protease inhibitor cocktail). Protein concentrations were determined by the Dc protein assay (Bio-Rad, Hercules, Calif.). Equal amounts of protein were resolved by SDS-PAGE and transferred to nitrocellulose. The membranes were blocked in 5% non-fat milk in Tris-buffered saline with 0.1% Tween-20 (TBST). Primary antibodies diluted in 5% bovine serum albumin/TBST were incubated overnight at 4° C. and HRP-conjugated secondary antibodies in 5% non-fat milk/TBST for 2 hours at room temperature. Protein bands were visualized by Enhanced Chemiluminescence Plus (GE Healthcare, Piscataway, N.J.).

MDCK cells = test: LDH release cytotoxicity assay; format: cell-based; conditions: 24 hours, 0, 5, 10 and 20 μM; low phosphorylated Cdc27
Experimental: Lactate dehydrogenase (LDH) levels as a measure of cell death were determined using the Non-radioactive Cytotoxicity kit (Promega, Madison, Wis.) according to manufacturer's instructions. […] Cell debris was removed by centrifugation. Viable cell LDH was collected from cells lysed by freezing for 15 minutes at −70° C. followed by thawing at 37° C. The medium was collected and cleared from cell debris by centrifugation. The relative release of LDH was determined as the ratio of released LDH versus total LDH from viable cells.

acetylated tubulin = test: Acetylated tubulin accumulation in cell lines; format: cell-based; conditions: cells with low levels of phosphorylated Cdc27; 20 μM curcumin for 0, 4, 8 and 24 hours
Experimental: Accumulation of acetylated tubulin was assayed. […] Thus, loss of Cdc27 function or p55Cdc20 association with Cdc27 may be linked to increased tubulin acetylation in curcumin-treated cells.

[3] = tested on: APC2, p55Cdc20, cyclins A and E, APC7, APC8; test: Immunoblotting of APC/C subunits and other cell cycle related proteins in DAOY cells; format: cell-based, human; conditions: control vs curcumin-treated DAOY cells, immunoblot
Experimental: Cell lysates were prepared in a buffer containing 20 mM Tris (pH 7.5), 150 mM NaCl, 1 mM EDTA, 1 mM EGTA, 0.1% Triton X-100, 2.5 mM sodium pyrophosphate, 1 mM β-glycerol phosphate, 1 mM sodium vanadate, 1 mM phenylmethylsulfonyl fluoride and 5 μg/ml of antipapain, leupeptin and pepstatin (protease inhibitor cocktail). Protein concentrations were determined by the Dc protein assay (Bio-Rad, Hercules, Calif.). Equal amounts of protein were resolved by SDS-PAGE and transferred to nitrocellulose. The membranes were blocked in 5% non-fat milk in Tris-buffered saline with 0.1% […] (TBST). Primary antibodies diluted in 5% bovine serum albumin/TBST were incubated overnight at 4° C. and HRP-conjugated secondary antibodies in 5% non-fat milk/TBST for 2 hours at room temperature. Protein bands were visualized by Enhanced Chemiluminescence Plus (GE Healthcare, Piscataway, N.J.).
Cell lysates were prepared in a buffer containing 20 mM Iris (pH 7.5), 150 mM NaCl, 1 mM EDTA, 1 mM EGTA, 0.1% Triton X-100, 2.5 mM sodium pyrophosphate, 1 mM β-glycerol phosphate, 1 mM sodium vanadate, 1 mM phenylmethylsulfonyl fluoride and 5 μg/ml of antipapain, leupeptin and pepstatin (protease inhibitor cocktail). Protein concentrations were determined by the Dc protein assay (Bio-Rad, Hercules, Calif.). Equal amounts of protein were resolved by SDS-PAGE and transferred to nitrocellulose. […]

T1 sequence (P30260 1-830 isoform P30260-2): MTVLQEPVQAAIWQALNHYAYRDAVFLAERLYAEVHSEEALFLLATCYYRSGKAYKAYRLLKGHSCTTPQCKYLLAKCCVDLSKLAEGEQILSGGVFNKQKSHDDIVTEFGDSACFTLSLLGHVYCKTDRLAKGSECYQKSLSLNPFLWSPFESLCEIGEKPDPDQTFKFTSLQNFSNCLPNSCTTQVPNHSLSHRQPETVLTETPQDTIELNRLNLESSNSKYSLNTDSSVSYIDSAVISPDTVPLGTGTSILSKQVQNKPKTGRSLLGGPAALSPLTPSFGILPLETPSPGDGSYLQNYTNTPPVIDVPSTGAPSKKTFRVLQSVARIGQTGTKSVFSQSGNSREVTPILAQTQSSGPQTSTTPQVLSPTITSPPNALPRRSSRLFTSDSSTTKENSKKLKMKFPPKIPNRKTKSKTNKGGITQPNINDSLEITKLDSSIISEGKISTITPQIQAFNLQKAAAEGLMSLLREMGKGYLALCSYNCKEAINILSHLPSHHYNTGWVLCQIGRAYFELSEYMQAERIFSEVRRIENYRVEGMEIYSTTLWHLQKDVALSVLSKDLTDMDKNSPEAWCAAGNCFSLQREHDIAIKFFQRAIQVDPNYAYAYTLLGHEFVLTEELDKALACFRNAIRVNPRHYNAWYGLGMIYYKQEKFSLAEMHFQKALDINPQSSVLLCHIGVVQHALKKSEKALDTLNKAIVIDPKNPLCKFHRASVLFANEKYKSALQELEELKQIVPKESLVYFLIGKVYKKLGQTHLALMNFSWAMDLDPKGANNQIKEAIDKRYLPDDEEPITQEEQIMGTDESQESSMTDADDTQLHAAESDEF

In the case of `COc1cc(/C=C/C(=O)CC(=O)/C=C/c2ccc(O)c(OC)c2)ccc1O` [Curcumin, (E,E)-1,7-bis(4-hydroxy-3-methoxyphenyl)-1,6-heptadiene-3,5-dion], the “pull-down of Cdc27 by curcumin-bound Sepharose beads” value (Cdc27 [1]) is reported as “pulled down Cdc27”, the “induction of high molecular weight bands of Cdc27 (crosslinking)” value (Cdc27 [2]; DAOY, 0, 3, 6, 9 or 24 hours) is reported as “induces the formation of Cdc27 dimers” and the “high molecular weight (MW) band of Cdc27” value (Cdc27 [2]; curcumin-treated DAOY cells, immunoblot) is reported as “approximately double the MW of Cdc27”. For the same compound, the “sensitivity to curcumin-induced apoptosis (LDH release)” value (MDCK cells) was “almost unaffected”, the curcumin-induced tubulin acetylation (acetylated tubulin) was “reduced” and the “expression of cyclin A and E” value [3] was “No noticeable changes”. The “levels of APC2 and p55Cdc20” value [3] was “comparable in control and curcumin-treated cells”.
